Experiments:
Estrogen receptor beta = Estrogen receptor beta (Homo sapiens, UniProt Q92731); details: sf9; further: in other assays of this panel Not Active means under 50% inhibition at 10 µM
Nitric oxide synthase 1 = Nitric oxide synthase 1 (Rattus norvegicus, UniProt P29476); assay type: tissue-based, Cerebellum; further: in other assays of this panel Not Active means under 50% inhibition at 10 µM
[1] = molecular target: T1, Muscarinic acetylcholine receptor M5 (Homo sapiens, UniProt P08912); assay type: cell membranes, CHO-K1, Membrane; further: in other assays of this panel Not Active means under 50% inhibition at 10 µM
T1 sequence (P08912 whole entry): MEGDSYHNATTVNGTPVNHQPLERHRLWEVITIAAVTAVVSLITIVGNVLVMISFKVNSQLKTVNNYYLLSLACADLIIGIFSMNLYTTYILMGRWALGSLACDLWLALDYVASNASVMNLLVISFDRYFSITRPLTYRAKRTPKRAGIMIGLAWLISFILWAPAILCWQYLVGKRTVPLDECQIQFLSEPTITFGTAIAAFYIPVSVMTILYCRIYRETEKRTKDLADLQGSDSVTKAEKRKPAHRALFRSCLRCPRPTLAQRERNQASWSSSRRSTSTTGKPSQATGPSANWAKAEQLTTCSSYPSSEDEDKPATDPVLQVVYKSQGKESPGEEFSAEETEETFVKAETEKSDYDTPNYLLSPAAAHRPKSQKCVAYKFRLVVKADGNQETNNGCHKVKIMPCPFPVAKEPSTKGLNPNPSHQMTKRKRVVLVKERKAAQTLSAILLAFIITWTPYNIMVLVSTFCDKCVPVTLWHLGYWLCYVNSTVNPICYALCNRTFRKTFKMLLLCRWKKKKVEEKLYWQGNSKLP

Substance-K receptor = molecular target: T2, Substance-K receptor (Homo sapiens, UniProt P21452); assay type: cell membranes, CHO, Membrane; details: cho; further: in other assays of this panel Not Active means under 50% inhibition at 10 µM
T2 sequence (P21452 whole entry): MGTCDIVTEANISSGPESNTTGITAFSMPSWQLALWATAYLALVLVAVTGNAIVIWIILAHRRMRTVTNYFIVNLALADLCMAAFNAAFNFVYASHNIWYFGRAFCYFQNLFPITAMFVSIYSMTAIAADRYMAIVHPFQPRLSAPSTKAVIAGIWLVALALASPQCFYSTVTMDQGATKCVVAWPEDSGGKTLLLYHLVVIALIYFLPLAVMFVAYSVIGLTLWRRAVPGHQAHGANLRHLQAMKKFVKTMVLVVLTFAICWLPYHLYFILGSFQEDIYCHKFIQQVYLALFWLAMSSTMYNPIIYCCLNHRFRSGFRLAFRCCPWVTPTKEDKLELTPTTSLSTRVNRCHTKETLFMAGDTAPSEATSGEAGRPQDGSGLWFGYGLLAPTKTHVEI

Caspase-1 = molecular target: T3, Caspase-1 (Homo sapiens, UniProt P29466); parameters: species or system Escherichia coli
T3 sequence (P29466 whole entry): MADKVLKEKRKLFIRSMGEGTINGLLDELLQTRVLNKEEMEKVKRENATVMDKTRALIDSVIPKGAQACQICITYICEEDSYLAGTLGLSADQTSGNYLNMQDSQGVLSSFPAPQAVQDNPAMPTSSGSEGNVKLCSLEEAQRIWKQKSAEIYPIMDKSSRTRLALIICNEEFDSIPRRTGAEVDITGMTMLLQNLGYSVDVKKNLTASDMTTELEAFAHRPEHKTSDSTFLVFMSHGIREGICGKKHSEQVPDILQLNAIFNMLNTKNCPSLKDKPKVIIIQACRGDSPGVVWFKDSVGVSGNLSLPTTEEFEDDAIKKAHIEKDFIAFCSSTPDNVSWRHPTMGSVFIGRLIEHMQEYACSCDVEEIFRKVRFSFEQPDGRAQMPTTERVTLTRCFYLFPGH

[2] = DRUGMATRIX: Phosphodiesterase PDE3 enzyme inhibition (substrate: [3H]cAMP + cAMP); assay type: tissue-based, Homo sapiens; details: platelet; Not Active = under 50% inhibition at 10 µM
[3] = DRUGMATRIX: Purinergic P2X radioligand binding (ligand: [3H] alpha, beta-Methylene-ATP); assay type: cell membranes, Oryctolagus cuniculus, New Zealand albino, Urinary bladder, Membrane; details: Not Active = under 50% inhibition at 10 µM

Nitric oxide synthase 1, sequence (P29476 whole entry): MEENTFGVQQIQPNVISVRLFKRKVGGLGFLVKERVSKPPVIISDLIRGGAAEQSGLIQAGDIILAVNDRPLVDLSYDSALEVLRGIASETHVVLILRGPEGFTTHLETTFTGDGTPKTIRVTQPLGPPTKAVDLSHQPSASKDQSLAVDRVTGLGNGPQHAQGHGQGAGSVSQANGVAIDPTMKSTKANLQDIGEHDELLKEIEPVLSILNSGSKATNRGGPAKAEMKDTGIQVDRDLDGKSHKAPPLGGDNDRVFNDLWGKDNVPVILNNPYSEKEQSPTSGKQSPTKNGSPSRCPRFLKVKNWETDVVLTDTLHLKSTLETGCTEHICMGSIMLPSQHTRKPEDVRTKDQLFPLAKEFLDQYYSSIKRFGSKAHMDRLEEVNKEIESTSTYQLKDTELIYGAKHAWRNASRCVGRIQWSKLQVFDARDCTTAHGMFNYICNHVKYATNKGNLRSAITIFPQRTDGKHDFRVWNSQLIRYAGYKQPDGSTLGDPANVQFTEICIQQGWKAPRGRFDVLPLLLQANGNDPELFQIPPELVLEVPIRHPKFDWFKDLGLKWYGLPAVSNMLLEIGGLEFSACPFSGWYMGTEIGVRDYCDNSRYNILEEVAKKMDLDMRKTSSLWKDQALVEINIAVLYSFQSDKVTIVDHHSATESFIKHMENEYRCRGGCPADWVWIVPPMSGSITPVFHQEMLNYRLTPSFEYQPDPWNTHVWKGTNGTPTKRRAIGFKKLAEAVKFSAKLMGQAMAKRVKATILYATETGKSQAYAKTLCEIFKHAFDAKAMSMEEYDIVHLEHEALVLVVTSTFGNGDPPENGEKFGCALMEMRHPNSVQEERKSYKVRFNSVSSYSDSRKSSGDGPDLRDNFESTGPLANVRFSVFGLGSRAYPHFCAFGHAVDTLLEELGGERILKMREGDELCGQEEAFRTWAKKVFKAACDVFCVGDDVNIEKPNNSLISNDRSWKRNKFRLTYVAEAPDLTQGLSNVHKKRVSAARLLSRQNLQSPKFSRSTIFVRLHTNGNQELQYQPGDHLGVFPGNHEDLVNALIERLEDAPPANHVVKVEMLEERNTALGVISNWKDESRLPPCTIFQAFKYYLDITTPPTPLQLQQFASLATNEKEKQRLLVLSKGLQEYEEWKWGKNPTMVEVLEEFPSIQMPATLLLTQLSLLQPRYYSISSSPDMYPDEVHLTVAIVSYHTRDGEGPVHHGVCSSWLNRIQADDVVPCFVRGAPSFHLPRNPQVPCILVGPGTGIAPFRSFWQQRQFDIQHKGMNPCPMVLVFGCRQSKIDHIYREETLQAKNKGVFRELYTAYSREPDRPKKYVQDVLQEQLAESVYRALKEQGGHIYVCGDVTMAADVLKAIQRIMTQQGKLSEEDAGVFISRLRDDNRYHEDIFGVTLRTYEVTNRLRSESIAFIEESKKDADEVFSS
Estrogen receptor beta, sequence (Q92731 whole entry): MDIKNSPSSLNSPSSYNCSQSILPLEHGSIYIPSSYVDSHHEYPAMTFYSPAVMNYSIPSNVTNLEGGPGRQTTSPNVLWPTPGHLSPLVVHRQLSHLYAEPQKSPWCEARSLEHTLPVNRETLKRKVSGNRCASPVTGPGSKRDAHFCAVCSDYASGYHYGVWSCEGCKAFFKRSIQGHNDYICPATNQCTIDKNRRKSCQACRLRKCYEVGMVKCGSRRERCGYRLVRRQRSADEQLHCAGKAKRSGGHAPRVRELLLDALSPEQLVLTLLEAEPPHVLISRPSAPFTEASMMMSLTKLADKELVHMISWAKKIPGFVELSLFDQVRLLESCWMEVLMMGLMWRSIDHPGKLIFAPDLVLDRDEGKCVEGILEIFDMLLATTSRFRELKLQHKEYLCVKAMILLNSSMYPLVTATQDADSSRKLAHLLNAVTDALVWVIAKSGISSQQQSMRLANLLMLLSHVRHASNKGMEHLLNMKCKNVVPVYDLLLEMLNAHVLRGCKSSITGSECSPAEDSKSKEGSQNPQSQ

Molecule | IC50 (Estrogen receptor beta) | IC50 (Nitric oxide synthase 1) | IC50 ([1]; cho-k1) | IC50 (Substance-K receptor) | IC50 (Caspase-1) | IC50 [2] | Ki [2] | IC50 [3] | Ki [3] | IC50 ([1]; read-out: IC50) | Ki ([1]; read-out: Ki) | Ki (Estrogen receptor beta) | Ki (Nitric oxide synthase 1) | Ki ([1]; cho-k1) | Ki (Substance-K receptor) | Ki (Caspase-1)
C[C@@H]1O[C@@H](O[C@H]2C[C@@H](O)[C@]3(CO)[C@H]4[C@H](O)C[C@]5(C)[C@@H](C6=CC(=O)OC6)CC[C@]5(O)[C@@H]4CC[C@]3(O)C2)[C@H](O)[C@H](O)[C@H]1O [OUABAIN] | Not Active | Not Active | Not Active | Not Active | Not Active | Not Active | Not Active | Not Active | Not Active | – | – | – | – | – | – | –
NC(=O)N1c2ccccc2CC(=O)c2ccccc21 [OXCARBAZEPINE] | Not Active | Not Active | Not Active | Not Active | Not Active | Not Active | Not Active | Not Active | Not Active | – | – | – | – | – | – | –
COc1ccnc(C[S+]([O-])c2nc3ccc(OC(F)F)cc3[nH]2)c1OC (configuration not stated) [PANTOPRAZOLE] | Not Active | Not Active | Not Active | Not Active | Not Active | Not Active | Not Active | Not Active | Not Active | – | – | – | – | – | – | –
CCc1ccc(CCOc2ccc(CC3SC(=O)NC3=O)cc2)nc1 (configuration not stated) [PIOGLITAZONE] | Not Active | Not Active | Not Active | Not Active | Not Active | Not Active | Not Active | Not Active | Not Active | – | – | – | – | – | – | –
CCN(CC)CCNC(=O)c1ccc(N)cc1 [PROCAINAMIDE] | Not Active | Not Active | Not Active | Not Active | Not Active | Not Active | Not Active | Not Active | Not Active | – | – | – | – | – | – | –
CCN(CC)CCCC(C)Nc1c2ccc(Cl)cc2nc2ccc(OC)cc12 (configuration not stated) [QUINACRINE] | Not Active | Not Active | – | Not Active | Not Active | Not Active | Not Active | Not Active | Not Active | 3.74 µM | 2.68 µM | – | – | – | – | –
CC[C@]1(O)C[C@@H]2CN(CCc3c([nH]c4ccccc34)[C@@](C(=O)OC)(c3cc4c(cc3OC)N(C)[C@H]3[C@@](O)(C(N)=O)[C@H](O)[C@]5(CC)C=CCN6CC[C@]43[C@@H]65)C2)C1 [VINDESINE] | Not Active | Not Active | Not Active | Not Active | Not Active | Not Active | Not Active | Not Active | Not Active | – | – | – | – | – | – | –
COBALTOUS CHLORIDE | Not Active | Not Active | Not Active | Not Active | Not Active | Not Active | Not Active | Not Active | Not Active | – | – | Not Active | Not Active | Not Active | Not Active | Not Active
COLISTIN | Not Active | Not Active | Not Active | Not Active | Not Active | Not Active | Not Active | Not Active | Not Active | – | – | Not Active | Not Active | Not Active | Not Active | Not Active

Source: ChEMBL document CHEMBL1909046, “DrugMatrix in vitro pharmacology data”
